Assays:
[1] = biological target: T1, human PDHK2 (hPDHK2) (Homo sapiens, UniProt Q15119); assay: Inhibitory action of PDHK2 activity in vitro (residual PDH activity after kinase reaction); type: biochemical
T1 construct: made in house; host or cells: Escherichia coli BL21(DE3), pET17b vector
Method: The inhibitory action of PDHK activity was assessed indirectly by measuring the residual PDH activity after kinase reaction in the presence of a test compound.
In the case of human PDHK2 (hPDHK2, Genbank Accession No. BC040478.1), modified hPDHK2 cDNA wherein FLAG-Tag sequence was added to the N terminus of hPDHK2 cDNA clone (pReceiver-M01/PDK2-GeneCopoeia) was prepared by PCR and cloned into a vector (pET17b-Novagen). The recombinant construct was transformed into Escherichia coli (DH5α-TOYOBO). The recombinant clones were identified, and plasmid DNA was isolated and subjected to the DNA sequence analysis. One clone which had the expected nucleic acid sequence was selected for expression work.
For expression of hPDHK2 activity, Escherichia coli strain BL21(DE3) cells (Novagen) were transformed with the pET17b vector containing modified hPDHK2 cDNA. The Escherichia coli were grown to an optical density 0.6 ([…]) at 30° C. Protein expression was induced by the addition of 500 μmol/L isopropyl-β-thiogalactopyranoside. The Escherichia coli were cultured at 30° C. for 5 hr and harvested by centrifugation. Resuspension of the Escherichia coli paste was disrupted by a microfluidizer. FLAG-Tagged protein was purified using FLAG affinity gel. The gel was washed with 20 mmol/L HEPES-NaOH, 500 mmol/L sodium chloride, 1% ethylene glycol, and 0.1% Pluronic F-68 (pH 8.0), and the binding protein was eluted with 20 mmol/L HEPES-NaOH, 100 μg/mL FLAG peptide, 500 mmol/L sodium chloride, 1% ethylene glycol, and 0.1% Pluronic F-68 (pH 8.0). The eluted fractions containing FLAG-Tagged protein were pooled, dialyzed against 20 mmol/L HEPES-NaOH, 150 mmol/L sodium chloride, 0.5 mmol/L EDTA, 1% ethylene glycol, and 0.1% Pluronic F-68 (pH 8.0), and preserved at −80° C.
0.05 U/mL PDH and 0.8 μg/mL hPDHK2 were mixed in a buffer (50 mmol/L 3-morpholinopropanesulfonic acid (pH 7.0), 20 mmol/L dipotassium hydrogen phosphate, 60 mmol/L potassium chloride, 2 mmol/L magnesium chloride, 0.4 mmol/L EDTA, and 0.2% Pluronic F-68, 2 mmol/L dithiothreitol), and the mixture was incubated at 4° C. overnight to obtain a PDH/hPDHK2 complex. The test compounds were diluted with DMSO. […] DMSO (1.5 μL) was added to control wells instead of the test compound. […] The mixture was incubated at room temperature for 90 min, and the residual PDH activity was measured. The absorbance at 340 nm before and after PDH reaction was measured using a microplate reader to detect NADH produced by the PDH reaction. The hPDHK2 inhibition rate (%) of the test compound was calculated from the formula [{(PDH activity of test compound−PDH activity of control)/PDH activity of blank−PDH activity of control)}×100].

[2] = Metabolic stability test in rat liver microsome; type: in vitro ADME
[3] = Metabolic stability test in human liver microsome; type: in vitro ADME; conditions: 37° C., 5 μM
Method: Human liver microsome (manufactured by Xenotech, H0620, final concentration (after dilution), 0.2 mg protein/mL) was suspended in 100 mM potassium phosphate buffer (pH 7.4, containing β-nicotinamide adenine dinucleotide phosphate: 1.3 mM, D-glucose-6-phosphate: 3.3 mM, magnesium chloride: 3.3 mM, glucose-6-phosphate dehydrogenase: 0.45 U/mL), and further mixed with a test compound dissolved in MeCN/DMSO (95/5) (final concentration 5 μM). The mixture was incubated at 37° C. for 10 min and 60 min, acetonitrile containing formic acid (final concentration 0.1%) was added, and the mixture was centrifuged. The test compound (unmodified) in the supernatant was measured by high performance liquid chromatography/mass spectrometry (LC/MS) (manufactured by Waters, LC: Acquity UPLC, MS:SQ Detector or TQ Detector). The residual ratio (%) was calculated from the obtained measurement value.

[4] = biological target: T2, hERG (Homo sapiens, UniProt Q12809); assay: hERG whole cell patch clamp test; type: cell-based; conditions: human, HEK293 cells transfected with hERG, pH 7.4; concentration 10 μmol/L; read-out: hERG inhibition rate (%)
T2 construct: host or cells: HEK293
T2 sequence (Q12809 whole entry): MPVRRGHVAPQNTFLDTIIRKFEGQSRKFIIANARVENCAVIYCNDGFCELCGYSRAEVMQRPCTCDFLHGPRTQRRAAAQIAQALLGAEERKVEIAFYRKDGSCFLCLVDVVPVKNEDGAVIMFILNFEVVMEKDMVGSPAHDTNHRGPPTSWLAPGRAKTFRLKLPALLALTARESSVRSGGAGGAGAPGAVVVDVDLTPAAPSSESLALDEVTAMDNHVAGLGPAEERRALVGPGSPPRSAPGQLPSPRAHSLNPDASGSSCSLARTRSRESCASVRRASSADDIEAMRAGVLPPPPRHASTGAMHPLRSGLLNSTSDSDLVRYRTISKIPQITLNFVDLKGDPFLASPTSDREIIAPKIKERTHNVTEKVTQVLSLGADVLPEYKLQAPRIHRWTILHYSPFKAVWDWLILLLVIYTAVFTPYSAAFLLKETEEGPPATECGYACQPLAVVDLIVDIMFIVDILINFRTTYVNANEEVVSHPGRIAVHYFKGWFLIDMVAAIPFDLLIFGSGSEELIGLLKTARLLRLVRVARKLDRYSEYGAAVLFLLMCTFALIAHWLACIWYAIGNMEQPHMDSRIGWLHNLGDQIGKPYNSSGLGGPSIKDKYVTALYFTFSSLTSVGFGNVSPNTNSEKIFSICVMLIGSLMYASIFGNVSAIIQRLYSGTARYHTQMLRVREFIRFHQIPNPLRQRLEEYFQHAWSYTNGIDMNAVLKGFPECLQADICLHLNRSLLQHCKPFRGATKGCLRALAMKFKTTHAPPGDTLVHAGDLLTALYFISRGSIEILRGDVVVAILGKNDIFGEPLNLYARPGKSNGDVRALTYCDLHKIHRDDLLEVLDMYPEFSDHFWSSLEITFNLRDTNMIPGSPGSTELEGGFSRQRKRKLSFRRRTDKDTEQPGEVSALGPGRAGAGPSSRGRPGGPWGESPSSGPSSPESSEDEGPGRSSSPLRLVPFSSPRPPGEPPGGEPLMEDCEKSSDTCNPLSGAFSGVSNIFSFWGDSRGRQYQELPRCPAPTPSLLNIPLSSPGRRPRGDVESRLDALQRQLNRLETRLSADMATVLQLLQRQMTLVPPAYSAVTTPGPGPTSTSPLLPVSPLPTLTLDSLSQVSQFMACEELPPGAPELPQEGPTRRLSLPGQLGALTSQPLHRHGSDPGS
Method: (§1) Using human ether-a-go-go related gene (hERG)-transfected HEK293 cells (Cytomyx Limited), an influence on hERG current was examined according to the whole cell patch clamp technique. The hERG-transfected HEK293 cells were passaged using a CO2 incubator (BNA-111, TABAI ESPEC CORP.) under the set conditions of 37° C., 5% CO2, saturated humidity. Culture containers used were Collagen Type I Coated 75 cm^2 flask (4123-010, AGC TECHNO GLASS CO., Ltd.) and Collagen Type I Coated 35 mm culture dish (4000-010, AGC TECHNO GLASS CO., Ltd.). The culture medium used was E-MEM (Eagle Minimum Essential Medium (Earle's Salts, Nikken biomedical laboratory) added with 10% FCS (Fetal bovine serum, BioWest, L.L.C.) and 1% MEM Non-Essential Amino Acids Solution (NEAA, Invitrogen Corporation). Geneticin for the selection of hERG gene expressing cells was added thereto to a concentration of 400 μg/mL. As the cells for the measurement, 3×10^4 hERG-transfected HEK293 cells were plated on a 35 mm culture dish 4 to 7 days before measurement of the hERG current. The culture dish produced for the measurement contained the above-mentioned culture medium without geneticin (Invitrogen Corporation).
(§2) The highest evaluation concentration of each compound was determined from the highest concentration at which precipitation was not found in the standard extracellular fluid (NaCl: 140 mmol/L, KCl: 2.5 mmol/L, MgCl2: 2 mmol/L, CaCl2: 2 mmol/L, HEPES: 10 mmol/L, glucose: 10 mmol/L (adjusted to pH 7.4 with Tris-base)). As the application method, each solution to be applied was ejected from a Y-tube having a tip diameter of about 0.25 mm, which was adjacent (about 2 mm) to the cells, and applied to the cells. The ejection rate was about 0.4 mL/min.
(§3) The experiment was performed at room temperature under a phase contrast microscope. The 35 mm culture dish plated with the cells was set on a measurement apparatus, and the standard extracellular fluid was continuously applied to the cells from the Y-tube. A glass electrode for the measurement was filled with an intracellular fluid (Potassium Gluconate: 130 mmol/L, KCl: 20 mmol/L, MgCl2: 1 mmol/L, ATP-Mg: 5 mmol/L, EGTA: 3.5 mmol/L, HEPES: 10 mmol/L (adjusted to pH 7.2 with Tris-base)). A conventional whole cell patch clamp method was applied to the cells, and the maintenance electric potential was set to −80 mV. Under a fixed electric potential, the whole cell current was amplified by an amplifier for patch clamp (AXOPATCH-200B, Axon Instruments, Inc.), and the data was loaded into a computer (IMC-P642400, Intermedical Co., Ltd.) using a data acquisition analysis software (pCLAMP 9.2, Axon Instruments, Inc.).
(§4) The measurement of the hERG current was performed in the following two steps. In both cases, the hERG current was initiated by giving a command potential (maintenance electric potential −80 mV, prepulse+20 mV, 1.5 sec, test-pulse −50 mV, 1.5 sec).
(§5) Step (1): The above-mentioned command potential was given at 0.1 Hz for 2 min.
(§6) Step (2): The above-mentioned command potential was subjected to P/3 subtraction of pCLAMP 9.2 to remove leak current. This was repeated three times and an average thereof was taken as hERG current.
(§7) Subsequent to step (1), Step (2) was performed (about 3 min), and the maximum tail current obtained by applying a test-pulse to the hERG current obtained by the method of step (2) was taken as hERG current value. Hereafter, the operations of (1) and (2) were alternately repeated until completion of the experiment and the hERG current value was measured.
(§8) Stable hERG current value was recorded three times (about 10 min), and the standard extracellular fluid was instantaneously exchanged with each application fluid. The hERG current value was measured three times (about 10 min) in the same manner during perfusion of the application fluid, and the current value obtained by the 3rd measurement was taken as hERG current value after perfusion of the application fluid. […]

[5] = biological target: T3, hERG current (hERG-transfected HEK293 cells) (Homo sapiens, UniProt Q12809); assay: hERG whole cell patch clamp test; type: cell-based; conditions: whole cell patch clamp, hERG-transfected HEK293 cells
T3 construct: host or cells: HEK293
T3 sequence (Q12809 whole entry): as above
Method: as §1, §2, §3, §4, §5, §6, §7, §8

IC50 [1]: 5.1 nM
stability in liver microsome (residual ratio %) ([2]; 10 min): 24.8%
stability in liver microsome (residual ratio %) ([2]; 60 min): 0.0%
stability in liver microsome (residual ratio %) ([3]; 10 min): 34.8%
stability in liver microsome (residual ratio %) ([3]; 60 min): 0.0%
Compound: NC(=O)Cn1cc(-c2cc(OCCC34CC5CC(CC(O)(C5)C3)C4)cc3c2-c2ccccc2[C@]3(O)C(F)(F)F)cn1 [compound (A), 2-(4-{(9R)-9-Hydroxy-2-[2-(3-hydroxyadamantan-1-yl)ethoxy]-9-(trifluoromethyl)-9H-fluoren-4-yl}-1H-pyrazol-1-yl)acetamide, reference compound]
inhibition at 10 μmol/L [4]: 11.8%
IC50 [5]: > 10000 nM
